Data on 7 compounds can be found in patent publication US20050113317A1, “Combination of dehydroepiandrosterone or dehydroepiandrosterone-sulfate with a cromone for treatment of asthma or chronic obstructive pulmonary disease” (priority 2003, published 2005).

Each structure is given as a SMILES string. Several values for one entry are separate records, joined by “and”; a condition that tells them apart may be missing. Identical values can stand only once.

Series [1] in a line: Particle size of jet-milled / spray-dried DHEA-S (Malvern Mastersizer X, light microscope). Type of series: physicochemical. Particulars: two batches, visual examination of dispersions. How it is done:
Approximately 1 g sample was passed through the jet mill, once, and approximately 2 g sample were passed through the jet mill twice. […] The resulting solution was sonicated for 3 minutes and appeared fully dispersed. The dispersed solutions were tested on a Malvern Mastersizer X with a small volume sampler (SVS) attachment. One sample of dispersed material was tested 5 times. The median particle size or D (v, 0.5) of unmilled material was 52.56 μm and the % RSD (relative standard deviation) was 7.61 for the 5 values. The D (v, 0.5) for a single pass through the jet mill was 3.90 μm and the % RSD was 1.27, and the D (v, 0.5) from a double pass through the jet mill 3.25 μm and the % RSD was 3.10.
The solution was spray-dried with a B-191 Mini Spray-Drier (Buchi, Flawil, Switzerland) with an inlet temperature of 55° C., outlet temperature of 40° C., at 100% aspirator, at 10% pump, nitrogen flow at 40 mbar and spray flow at 600 units. The spray-dried product was suspended in hexane and Span85 surfactant added to reduce agglomeration. The dispersions were sonicated with cooling for 3-5 minutes for complete dispersion and the dispersed solutions tested on a Malvern Mastersizer X with a Small Volume Sampler (SVS) attachment. […] Visual examination by light microscope of the dispersions of each batch confirmed that spray drying produced small respirable size particles. […]

Series [2] deals with HT-29 SF cells. Description: DHEA effect on cell cycle (flow cytometry). The series is classed as cell-based, human. Background: A flow cytometer gives signals particle by particle.
The test system of series [3] is Intracellular adenosine in various Rat Tissues. Description: In vivo effect on adenosine levels in rat tissues. How it is done:
Folinic acid (50 mg/kg) was administered intraperitoneally once daily for fourteen days. […] Hearts were removed from animals and flash frozen in liquid nitrogen with 10 s of death. Liver and lungs were removed en bloc and flash frozen with 30 s of death. Brain tissue was subsequently dissected.

The nature of series [4]: Short-term solution stability of DHEA-S nebulizer formulation. Type of series: physicochemical. The settings on record: for appearance / solution stability: 10 mg/mL in 0.12% NaCl. How it is done:
Aliquots of this solution are filled into clear glass vials and stored at RT (24-26° C.) and at 40° C. The samples are checked daily for DHEA-S content, DHEA content, and appearance. For each time point, duplicate samples are withdrawn and diluted from each vial. […] The study is stopped on day three. […] The solution should easily be stable for the day of reconstitution in a clinical trial. The following section describes the aerosol properties of this formulation.

Series [5] concerns rat peritoneal mast cells. In words: Mast cell degranulation (histamine secretion) after compound 48/80. The series is classed as cell-based. How it is done: We determined whether DHEA-sulfate would reduce mast cell degranulation after stimulation with compound 48/80 in rat peritoneal mast cells. Mast cell degranulation was quantified by measurement of histamine, a substance contained within the secretory granules of mast cells. The release of histamine is believed to parallel the release of leukotrienes and contribute to the respiratory dysfunction.
Freshly isolated rat peritoneal mast cells (2×10^5 cells) were pre-incubated for 5 min at 37° C. in a Balanced Salt Solution containing 150 mM NaCl (pH 7.4), 2.7 mM KCl, 0.9 mM CaCl2, 4 mM Na2HPO4, 2.7 mM KH2PO4, 1.75 mg/ml BSA and 0.1 μg/ml compound 48/80.
Following incubation, the mixture is cooled to 4° C. then centrifuged at 4500 rpm for 5 min. The supernatant is collected and mixed for 30 min at 4° C. with 5% TCA (trichloroacetic acid) to cause protein precipitation. After centrifugation at 9500×g for 15 min, the supernatant is collected and mixed with 0.25 M HCl. Thereafter, the samples are mixed with 2M NaOH and 0.2% OPT (ortho-phtalaldehyde) and incubated for 30 min at 4° C. in darkness, after which time the reaction is stopped by addition of 0.5 M H2SO4.
The amount of secreted histamine is quantified by measuring the fluorescence intensity at λex=360 nm and λem=450 nm using a spectrofluorimeter (GeminiXS, Molecular Devices). The results are expressed as a percent inhibition of control histamine secretion.

The nature of series [6]: Solubility of DHEA-S in NaCl media. The series is classed as physicochemical. The text has this: Inhalation of pure water can produce a cough stimulus. […] The temperature effect is weaker at high NaCl concentrations.
The nature of series [7]: Solubility remarks in text. The series is classed as physicochemical. The settings on record: 10^-4 M; mast cell assay conditions.
The nature of series [8]: HPLC analysis of drug degradation during jet milling. Particulars: HPLC peak area vs unmilled standard; single- and double-pass. The series is classed as physicochemical. How it is done: Two vials (A; single-pass; 150 mg) and (B double-pass; 600 mg) of the micronized drug were available for determining drug degradation during jet milling micronization. […] The chromatographic peak area for the HPLC assay of the unmilled drug standard solution (10 mg/ml) gave a value of 23,427. […] The chromatographic peak areas for vials A and B were 11,979 and 11,677, respectively.

Series [9] concerns HT-29 SF cells. Description: Reversal of DHEA effect on cell cycle. Type of series: cell-based, human. Particulars: 25 FM DHEA.
A short description of series [10]: Solid-state stability with and without lactose at 50° C. (DHEA formed, HPLC). The settings on record: 1 week at 50° C.; neat and lactose blend. The series is classed as physicochemical. From the text:
These conditions were used to stress the formulation in order to predict its long-term stability results. […] The primary degradant is DHEA. […] The materials on accelerated storage become more cohesive with time as evidenced by clumping during sample weighing for chemical analysis. […] This is a considerable disadvantage since lactose is the most commonly used inhalation excipient for dry powder formulations. Continuing with the virtually anhydrous form would mean limiting formulations to neat powder or undertaking more comprehensive safety studies to use a novel excipient.

Where [11] appears, read: 15° C., 20 mM Na^+, Ksp 1316 mM^2.

On to `C[C@]12CC[C@H](OS(=O)(=O)[O-])CC1=CC[C@@H]1[C@@H]2CC[C@]2(C)C(=O)CC[C@@H]12.[Na+]` [Anhydrous DHEA-S], for which, in [1], the “mean particle size by light microscope” value was 2.4 μm and 2.0 μm.

As for `C[C@]12CC[C@H](O)CC1=CC[C@@H]1[C@@H]2CC[C@]2(C)C(=O)CC[C@@H]12` [DHEA, 3β-hydroxyandrost-5-en-17-one], the cell cycle distribution result in [2] (200 μM DHEA, after 24 hours) was “more rapid increase in the percentage of cells in G1 and a decreased proportion of cells in S phase”. In addition, the cell cycle effect entry in series [2] (25, 50, 200 μM, 24-72 hours) is given as “G1 block in HT-29 SF cells in a time-and dose-dependent manner”. Further, in series [3] (rat, in vivo), the “effect on tissue adenosine” value is reported as “multi-organ depletion of adenosine”.

Turning to `C[C@]12CC[C@H](OS(=O)(=O)[O-])CC1=CC[C@@H]1[C@@H]2CC[C@]2(C)C(=O)CC[C@@H]12.[Na+]` [DHEA-S, sodium dehydroepiandrostenone sulfate], the solution stability result in [4] (7.5 mg/mL of DHEA-S in 0.12% NaCl, RT) is on record as “stable for at least one day at RT”. The “appearance / solution stability” value is reported as “became cloudy after two days of storage” in series [4] (40° C.) and “slight precipitate is observed on the third day” in series [4] (RT (24-26° C.)). For the same compound, the “maximal effect, inhibition of mast cell degranulation” value in series [5] (at 0.1 uM, percent inhibition of control histamine secretion) is 69.9%. Moreover, the “inhibition of mast cell degranulation” value in series [5] (rat peritoneal mast cells, compound 48/80) is on record as “concentration-dependent inhibition”. Besides, in series [5] (rat peritoneal mast cells, compound 48/80, histamine secretion, read-out: EC50, inhibition of mast cell degranulation), the EC50 came out at 170 nM. The “estimated DHEA-S solution concentration” value in series [6] (setting [11]) is reported as 10.7 mg/mL. Besides, the “estimated DHEA-S^− solution concentration” value in series [6] (setting [11]) is listed as 27.5 mM. Further, the “solubility as a function of NaCl concentration” value in series [6] (RT and refrigerated) is “decrease with NaCl concentration”. The “effect of 20 mM phosphate buffer on solubility” value in series [6] (RT, buffered vs unbuffered) is given as “suppress the solubility”. In addition, the “solubility under assay conditions” value in series [7] was “highly limited”. For the same compound, the “degradation during jet milling micronization” value in series [8] is given as “no detectable degradation”.

As for `C[C@]12CCC(=O)C=C1CC[C@@H]1[C@@H]2CC[C@@]2(C)[C@H]1CC[C@]2(C)O` [Methyltestosterone], the “effect on tissue adenosine” value in series [3] (rats, administered daily for two weeks) is on record as “multi-organ depletion of adenosine”.

Take `CC(C)CCC[C@@H](C)[C@H]1CC[C@H]2[C@@H]3CC=C4C[C@@H](O)CC[C@]4(C)[C@H]3CC[C@]12C` [CH, cholesterol]: the “prevention of DHEA-induced S phase depletion” value in [9] (72 hours) is “no effect”.

For `CC12CCC3C(CC=C4CC(OS(=O)(=O)[O-])CCC43C)C1CCC2=O.[Na+]` (centres unmarked) [DHEA-S Dihydrate], the “DHEA generated on storage” value in [10] is on record as “virtually no DHEA generated”.

As to `C[C@@](O)(CCO)CC(=O)O` [MVA, mevalonic acid], the “prevention of DHEA-induced S phase depletion” value in [9] (48 hours) is “partially prevented this effect”.

A word on the EC50: it is the concentration at which the effect is half-maximal.
